Where “and” joins values, the source holds several entries; their conditions need not be identical. Equal values may be shown once.
What was measured:
[1] = test system: S. aureus ATCC29213; experiment: MIC by microdilution, S. aureus ATCC29213; type: cell-based, Staphylococcus aureus; conditions: S. aureus ATCC29213 (MecA negative, wild-type), Mueller-Hinton broth, in duplicate
Method: The antibacterial profile of each derivative was evaluated by the standard microdilution method for susceptibility testing on 16 different strains, following the guidelines of CLSI. The selected panel included: • S. aureus ATCC25923 (MecA negative, wild-type) • S. aureus ATCC29213 (MecA negative, wild-type) • S. aureus ATCC700699 (MecA positive, glycopeptide resistant) • S. aureus ST20131365 (MecA positive, glycopeptide resistant) • S. epidermidis ATCC14990 (MecA negative, wild-type) • S. epidermidis ATCC35984 (MecA positive) • S. epidermidis ST20140436 (MecA positive, glycopeptide resistant) • S. epidermidis ST20150446 (MecA positive, glycopeptide resistant) • E. faecalis JH2-2 (wild-type) • E. faecalis UCN41 (VanA positive, glycopeptide resistant) • E. faecalis V583 (VanB positive, glycopeptide resistant) • E. faecium ATCC19434T (wild-type) • E. faecium BM4147 (VanA positive, glycopeptide resistant) • E. faecium AUS0004 (VanB positive, glycopeptide resistant) • E. coli ATCC25922 (wild-type) • Clostridium difficile ATCC9689 (wild-type)
Both series issued from the SAR study were evaluated for their antibacterial activity on a panel of characterized strains obtained from the French National Reference Centers for Staphylococci (Lyon, Pr. Fréderique Laurent) and for Enterococci (Caen, Pr. Vincent Cattoir), respectively. As shown in the following tables, both series contain very active compounds on multi-resistant Gram-positive bacteria (Minimal Inhibitory Concentrations lower than comparator antibiotic ampicillin). Furthermore, a very important antibacterial effect has been shown too on a strain of Clostridium difficile, a Gram-positive, spore-forming, bacillus responsible for post-antibiotic diarrhoae.
The antibacterial activity of test compounds was evaluated on a selected panel of Gram-positive (4 Staphylococcus aureus, 4 Staphylococcus epidermidis, 3 Enterococcus faecalis, 3 Enterococcus faecium, 1 Clostridium difficile) and Gram-negative strains (1 Escherichia coli, 1 Klebsiella pneumoniae, 1 Pseudomonas aeruginosa, 1 Acinetacter baumannii) with known features of antibiotic resistance (from wild-type susceptibility to multi-drug resistance). The Minimal Inhibitory Concentration (MIC) of test compounds was determined in duplicate by the microdilution method in 96-well microplates with a final volume of 100 μL per well and Mueller-Hinton broth as the growth medium, as recommended by the CLSI (Clinical and Laboratory Standards Institute, document Mo7-A10, USA).

[2] = test system: E. faecium ATCC19434T; experiment: MIC by microdilution, E. faecium ATCC19434T; type: cell-based, Enterococcus faecium; parameters: unit not given here; conditions: E. faecium ATCC19434T (wild-type), in duplicate
Summary of the method: (§1)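 Broth microdilution per CLSI document M07-A10, Mueller-Hinton medium, each MIC run in duplicate. Strains include E. coli ATCC25922 (wild-type), S. epidermidis ATCC35984 (MecA positive) and S. aureus ATCC700699 (MecA positive, glycopeptide resistant), within a mixed panel of susceptible and resistant Gram-positive/Gram-negative bacteria.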

[3] = test system: S. aureus ATCC700699; experiment: MIC by microdilution, S. aureus ATCC700699; type: cell-based, Staphylococcus aureus; parameters: unit not given here; conditions: S. aureus ATCC700699 (MecA positive, glycopeptide resistant), in duplicate
Summary of the method: as §1

[4] = test system: panel of Gram-positive and Gram-negative strains; experiment: Antibacterial profile on the selected panel of strains; type: cell-based; conditions: summary of Tables 1-12
Summary of the method: as §1

[5] = test system: S. aureus ST20131365; experiment: MIC by microdilution, S. aureus ST20131365; type: cell-based, Staphylococcus aureus; conditions: S. aureus ST20131365 (MecA positive, glycopeptide resistant), in duplicate
Summary of the method: as §1

[6] = test system: S. epidermidis ST20140436; experiment: MIC by microdilution, S. epidermidis ST20140436; type: cell-based, Staphylococcus epidermidis; conditions: S. epidermidis ST20140436 (MecA positive, glycopeptide resistant), in duplicate
Summary of the method: as §1

[7] = test system: S. epidermidis ST20150446; experiment: MIC by microdilution, S. epidermidis ST20150446; type: cell-based, Staphylococcus epidermidis; conditions: S. epidermidis ST20150446 (MecA positive, glycopeptide resistant), in duplicate
Summary of the method: as §1

[8] = test system: E. faecium AUS0004; experiment: MIC by microdilution, E. faecium AUS0004; type: cell-based, Enterococcus faecium; conditions: E. faecium AUS0004 (VanB positive, glycopeptide resistant), in duplicate
Summary of the method: as §1

[9] = test system: S. aureus ATCC25923; experiment: MIC by microdilution, S. aureus ATCC25923; type: cell-based, Staphylococcus aureus; conditions: S. aureus ATCC25923 (MecA negative, wild-type), Mueller-Hinton broth, in duplicate
Summary of the method: as §1

[10] = test system: E. coli ATCC25922; experiment: MIC by microdilution, E. coli ATCC25922; type: cell-based, Escherichia coli; conditions: E. coli ATCC25922 (wild-type), in duplicate
Summary of the method: as §1

[11] = test system: S. epidermidis ATCC35984; experiment: MIC by microdilution, S. epidermidis ATCC35984; type: cell-based, Staphylococcus epidermidis; conditions: S. epidermidis ATCC35984 (MecA positive), in duplicate
Summary of the method: as §1

[12] = test system: E. faecium BM4147; experiment: MIC by microdilution, E. faecium BM4147; type: cell-based, Enterococcus faecium; parameters: unit not given here; conditions: E. faecium BM4147 (VanA positive, glycopeptide resistant), in duplicate
Summary of the method: as §1

[13] = test system: E. faecalis V583; experiment: MIC by microdilution, E. faecalis V583; type: cell-based, Enterococcus faecalis; conditions: E. faecalis V583 (VanB positive, glycopeptide resistant), in duplicate
Summary of the method: as §1

[14] = test system: S. epidermidis ATCC14990; experiment: MIC by microdilution, S. epidermidis ATCC14990; type: cell-based, Staphylococcus epidermidis; conditions: S. epidermidis ATCC14990 (MecA negative, wild-type), in duplicate
Summary of the method: as §1

[15] = test system: E. faecalis JH2-2; experiment: MIC by microdilution, E. faecalis JH2-2; type: cell-based, Enterococcus faecalis; parameters: unit not given here; conditions: E. faecalis JH2-2 (wild-type), in duplicate
Summary of the method: as §1

[16] = test system: Clostridium difficile ATCC700057; experiment: MIC by microdilution, Clostridium difficile; type: cell-based; conditions: strain ATCC70057 [sic] (Tables 1-2) / ATCC700057 (Tables 3-10), in duplicate
[17] = test system: E. faecalis UCN41; experiment: MIC by microdilution, E. faecalis UCN41; type: cell-based, Enterococcus faecalis; parameters: unit not given here; conditions: E. faecalis UCN41 (VanA positive, glycopeptide resistant), in duplicate
Summary of the method: as §1

## CC[P+](CC)(CC)[Au-][c]1nn[nH]c1COC(=O)NCC(=O)O [TMB18]
[1]
  Minimal Inhibitory Concentration (MIC): 0.125
[2]
  Minimal Inhibitory Concentration (MIC): 0.25
[3]
  Minimal Inhibitory Concentration (MIC): 0.125
[4]
  antimicrobial / antibacterial activity (in words): have antimicrobial activity
[5]
  Minimal Inhibitory Concentration (MIC): 0.125
[6]
  Minimal Inhibitory Concentration (MIC): ≤0.06
[7]
  Minimal Inhibitory Concentration (MIC): ≤0.06
[8]
  Minimal Inhibitory Concentration (MIC): 0.25
[9]
  Minimal Inhibitory Concentration (MIC): 0.125
[10]
  Minimal Inhibitory Concentration (MIC): >8
[11]
  Minimal Inhibitory Concentration (MIC): ≤0.06
[12]
  Minimal Inhibitory Concentration (MIC): 0.5
[13]
  Minimal Inhibitory Concentration (MIC): 0.25 and 0.5
[14]
  Minimal Inhibitory Concentration (MIC): ≤0.06
[15]
  Minimal Inhibitory Concentration (MIC): 0.25
[16]
  Minimal Inhibitory Concentration (MIC): ≤0.06
[17]
  Minimal Inhibitory Concentration (MIC): 0.25 and 0.5

## CC[P+](CC)(CC)[Au-][c]1nn[nH]c1CN1CCN(C)CC1 [TMB33]
[1]
  Minimal Inhibitory Concentration (MIC): 0.25
[2]
  Minimal Inhibitory Concentration (MIC): 0.25
[3]
  Minimal Inhibitory Concentration (MIC): 0.25
[4]
  antimicrobial / antibacterial activity (in words): have antimicrobial activity
[5]
  Minimal Inhibitory Concentration (MIC): 0.25
[6]
  Minimal Inhibitory Concentration (MIC): 0.25
[7]
  Minimal Inhibitory Concentration (MIC): 0.25
[8]
  Minimal Inhibitory Concentration (MIC): 0.5
[9]
  Minimal Inhibitory Concentration (MIC): 0.125
[10]
  Minimal Inhibitory Concentration (MIC): >8
[11]
  Minimal Inhibitory Concentration (MIC): ≤0.06
[12]
  Minimal Inhibitory Concentration (MIC): 0.5
[13]
  Minimal Inhibitory Concentration (MIC): 0.5
[14]
  Minimal Inhibitory Concentration (MIC): ≤0.06
[15]
  Minimal Inhibitory Concentration (MIC): 0.25
[16]
  Minimal Inhibitory Concentration (MIC): ≤0.06
[17]
  Minimal Inhibitory Concentration (MIC): 1

## CC[P+](CC)(CC)[Au-][c]1nn[nH]c1CC(N)C(=O)O (stereo not drawn) [TMB37]
[1]
  Minimal Inhibitory Concentration (MIC): 0.125 and 0.25
[2]
  Minimal Inhibitory Concentration (MIC): 0.5
[3]
  Minimal Inhibitory Concentration (MIC): 0.25
[4]
  antimicrobial / antibacterial activity (in words): have antimicrobial activity
[5]
  Minimal Inhibitory Concentration (MIC): 0.25
[6]
  Minimal Inhibitory Concentration (MIC): 0.125
[7]
  Minimal Inhibitory Concentration (MIC): 0.125
[8]
  Minimal Inhibitory Concentration (MIC): 0.5
[9]
  Minimal Inhibitory Concentration (MIC): 0.125
[10]
  Minimal Inhibitory Concentration (MIC): >8
[11]
  Minimal Inhibitory Concentration (MIC): ≤0.06
[12]
  Minimal Inhibitory Concentration (MIC): 0.5
[13]
  Minimal Inhibitory Concentration (MIC): 0.5
[14]
  Minimal Inhibitory Concentration (MIC): ≤0.06
[15]
  Minimal Inhibitory Concentration (MIC): 0.5
[16]
  Minimal Inhibitory Concentration (MIC): ≤0.06
[17]
  Minimal Inhibitory Concentration (MIC): 0.5

Reference: patent US20210284668A1, “GOLD (I)-PHOSPHINE 1,2,3-TRIAZOLE DERIVATIVES WITH ANTIBIOTIC PROPERTIES” (Centre National de la Recherche Scientifique, priority 2018, published 2021)
